The values below come from patent US20070213303A1, “Methods for reducing platelet activation and for the treatment of thrombotic events” (priority 2005, published 2007).

In the assay the test system is platelets. Description: Conventional platelet aggregation induced by ADP. The class given is cell-based, human. Here is the method:
Trisodium citrate (3.8%) and whole blood is immediately mixed in a 1:9 ratio, and then centrifuged at 1200 g for 2.5 minutes, to obtain platelet-rich plasma (PRP), which is kept at room temperature for use within 1 hour for platelet aggregation studies. Platelet count is determined in each PRP sample with a Coulter Counter ZM (Coulter Co., Hialeah, Fla.). Platelet numbers are adjusted to 3.50×10^8/ml for aggregation with homologous platelet-poor plasma. PRP and whole blood aggregation tests are performed simultaneously. Whole blood is diluted 1:1 with the 0.5 ml PBS, and then swirled gently to mix. The cuvette with the stirring bar is placed in the incubation well and allowed to warm to 37° C. for 5 minutes. Then the samples are transferred to the assay well. An electrode is placed in the sample cuvette. Platelet aggregation is stimulated with 5 μM ADP, 1 μg/ml collagen, and 0.75 mM arachidonic acid. All agonists are obtained, e.g., from Chronolog Corporation (Hawertown, Pa.). Platelet aggregation studies are performed using a Chrono-Log Whole Blood Lumi-Aggregometer (model 560-Ca). Platelet aggregability is expressed as the percentage of light transmittance change from baseline using platelet-poor plasma as a reference at the end of recording time for plasma samples, or as a change in electrical impedance for whole blood samples. Aggregation curves are recorded for 4 minutes and analyzed according to internationally established standards using Aggrolink® software.
The effect of doses (15 μg/ml to 90 μg/ml) of Compound A on in vitro platelet characteristics in subjects with multiple factors for vascular disease was tested.
The in vitro effects of pre-incubation with escalating concentrations of Compound A on platelet aggregation, and expression of major surface receptors by flow cytometry, were assessed in 20 aspirin naïve volunteers with multiple risk factors for vascular disease.

On to `CC(C)(Sc1cc(C(C)(C)C)c(O)c(C(C)(C)C)c1)Sc1cc(C(C)(C)C)c(OC(=O)CCC(=O)O)c(C(C)(C)C)c1` [Compound A], for which the “Conventional platelet aggregation, ADP 5 μM” value reads like this: (preincubation 15 μg/mL) 39.95 ± 11.9%; (preincubation 30 μg/mL) 40.4 ± 6.9%; (preincubation 60 μg/mL) 42.05 ± 7.2%; (preincubation 90 μg/mL) 42.65 ± 6.3%. Moreover, under “pretreatment of blood samples with 15-30-60-90 μg/ml”, the “platelet aggregation induced by ADP” value is on record as “uniformed significant inhibition”.
